Measured values reported in paper PMC7762498, “Demethoxycurcumin analogue DMC-BH exhibits potent anticancer effects on orthotopic glioblastomas” (Aging (Albany NY), 2020).
Like-named read-outs stand apart in the source and are kept apart here.

Experiments:
[1] = system: human glioblastoma U87-Luc cells; experiment: Orthotopic glioblastoma xenograft (BLI, immunohistochemistry); format: in vivo, mice; conditions: for tumor growth (BLI): U87-Luc orthotopic xenograft, nude mice, 20 mg/kg intraperitoneal; for percentage of TUNEL-positive cells / Ki67-positive rate: orthotopic xenograft tissue, 20 mg/kg; for percentage of TUNEL-positive cells: control 3.30% ± 0.26%; for Ki67-positive rate: untreated group 36.73% ± 4.82%
Description: We used orthotopic glioblastoma xenografts transplanted into mice by human glioblastoma U87-Luc cells to quantify the anti-tumor effect of DMC-BH and DMC. Tumor growth was recorded in vivo using Bioluminescent Imaging (BLI). […] The sizes of the tumors in the mice treated with DMC-BH were much smaller than those in the DMC-treated group or control group (P < 0.05) (Figure 4B). […] In addition, no significant body weight loss occurred in any of the three groups (P > 0.05) (Figure 4C).
Figure 4 The effects of DMC-BH and DMC on tumor growth in orthotopic glioblastoma xenograft models. (A) U87-Luc xenograft tumor-bearing nude mice were treated with 20 mg/kg DMC-BH, 20 mg/kg DMC or isometric saline for 18 days. The growth of orthotopic glioblastoma xenografts was monitored by BLI. (B) The sizes of orthotopic glioblastoma xenografts were measured using an IVIS spectrum image system. (C) The body weight of animals was measured after DMC-BH, DMC or isometric saline treatment.
Figure 5 The effects of DMC-BH and DMC on orthotopic glioblastoma growth were analyzed by immunohistochemical staining. (A) The orthotopic glioblastoma growth potential after treatment with 20 mg/kg DMC-BH or DMC treatment was evaluated by Ki67 immunohistochemistry. (B) The orthotopic glioblastoma apoptosis rate after treatment with 20 mg/kg DMC-BH or DMC was analyzed by TUNEL staining.
Thirty-six male nude mice weighing between approximately 18 g and 20 g and aged 6 to 8 weeks were divided into a control group, DMC group and DMC-BH group. The nude mice were handled under a laminar flow hood, and the feed, bedding, cage and contact instruments were all used after high pressure disinfection. The amplified U87-Luc cells were passaged in a 6 cm culture dish and placed in a 5% CO2 incubator. Ten percent chloral hydrate (40 μL/10 g) was used to anesthetize nude mice, and the nude mice were fixed on a stereotaxic apparatus when they were under deep anesthesia. We began to digest the U87-Luc cells once the mice were immobilized. The concentration of cells was 1 × 10^8/mL. Using a micro syringe, we slowly drew up 5 μL cells. Then 5 × 10^5 U87-Luc cells were injected into the caudate nucleus of the nude mice through an infusion of 1 μL/min. The orthotopic glioblastoma growth was quantified by BLI using an IVIS SPECTRUM 200 system (Perkin Elmer). Either DMC-BH or DMC was administered via intraperitoneal injection at a dose level of 20 mg/kg per injection. The drug administration started 10 days after intracranial implantation of U87-Luc cells, and in vivo imaging confirmed that the tumors were formed. The drug was administered continuously for 18 days. Control mice received an equivalent volume of physiologic solution each day. At day 18, all animals were sacrificed by CO2 inhalation.
Anesthetize mice with 2-3% isoflurane. Inject mice intraperitoneally with D-luciferin (150 μl of 15 mg/ml stock). Ten minutes after luciferin injection assess bioluminescent signal over an integration time of 10 and 60 s using a cooled charge-coupled device (CCD) camera (Spectrum; Caliper Life Sciences, Hopkinton, MA, USA). BLI was used to monitor tumor growth and response to therapy using the IVIS spectrum imaging system.
Following perfusion, the whole brain was immersed in 10% neutral paraformaldehyde buffer solution and fixed for 48 hours at room temperature. Routine dehydration and paraffin embedding were performed after fixation. Paraffin blocks were sliced to a thickness of 3 μm. We dewaxed tissue sections with xylene and rehydrated them through an ethanol gradient. The sections were then rinsed 2 times for 5 minutes with PBS. Incubate with 3% methanol solution of hydrogen peroxide for 20 minutes. Sections were then incubated in 5% goat serum for 10 minutes at room temperature. Serum was removed, and the sections were incubated with the first antibody at 4° C degree overnight. After PBS flushing, we added a secondary biotin-conjugated antibody. […]

p-mTOR = experiment: Western blot of orthotopic xenograft tissue, p-mTOR; format: in vivo, mice; conditions: U87 orthotopic xenografts, versus control
From the text: (§1) The PI3K/Akt/mTOR signaling pathway is over activated in glioma tissues, and this increased activation is closely related to malignancy and chemoresistance of gliomas. Previous research reported that among its potential anti-tumor actions in breast cancer, DMC targeted multiple AMPK downstream pathways involving dephosphorylation of Akt and mTOR inhibition. Because DMC-BH is a DMC derivative, we further investigated the inhibitory effects of DMC-BH on gliomas by targeting the Akt/mTOR signaling pathway. We evaluated the expression of p-Akt, and p-mTOR in tumor tissues after DMC-BH treatment (Figure 6A). […] No significant changes were found in total Akt and mTOR expression. Moreover, the expression of p-Akt and p-mTOR in the DMC group was decreased with that in the control group (P < 0.05).
(§2) Figure 6 The effects of DMC-BH and DMC on the Akt/mTOR signaling pathway in U87 orthotopic glioblastoma xenografts. (A) Total protein was extracted from U87 orthotopic glioblastoma xenografts. Then p-Akt and p-mTOR protein expression was detected by Western blot. (B) The column chart illustrates the relative expression levels of these proteins.

[2] = Rat pharmacokinetic study; format: in vivo, rats; design: Vz_F_obs (volume of distribution): unit not given here; conditions: for MRT last: read-out: MRTlast (mean residence time); for half-life: read-out: T1/2 (half-life) (converted)
Description: Rat PK studies were performed to study whether DMC-BH is more bioavailable than did DMC.
Female Sprague-Dawley (SD) rats (n = 3) were purchased from the Shanghai Experimental Animal Center of Chinese Academy of Science (Shanghai, China). After 3 days of acclimatization, DMC-BH or DMC was administered intravenously into the jugular vein catheters at a dose of 1.00 mg/kg. After oral administration, blood samples (250 μL) were collected via jugular vein catheters at 30, 60, 90, 120, 150, 180 and 240 minutes and 8, 12 and 24 hours. Plasma samples were prepared by centrifuging the blood samples at 13,000 g for 5 minutes. All plasma samples were stored immediately at -80° C until analyzed. Analytes were extracted from 100 μL of plasma with 300 μL of acetonitrile containing 125 ng/mL of the internal standard (midazolam). The samples were thoroughly mixed and centrifuged at 8,000 g. The organic extract was added to 150 μL of 5mM NH4FA and transferred to the autosampler for LC-MS/MS analysis. Multiple reaction monitoring mode, a highly specific and sensitive label-free technique was performed by scanning the most sensitive signals. The pharmacokinetic parameters were determined using non-compartmental analysis (WinNonlin, Pharsight Corporation, Mountain View, CA, USA).

p-Akt = experiment: Western blot of orthotopic xenograft tissue, p-Akt; format: in vivo, mice; conditions: U87 orthotopic xenografts, versus control
From the text: as §1, §2

[3] = female, Sprague-Dawley, plasma, iv, 1.00 mg/kg
[4] = female, Sprague-Dawley, plasma, po, i.g., 10.0 mg/kg

Demethoxycurcumin [DMC, reference compound]
tumor growth (BLI) [1]: slight but significant tumor inhibitory effects
percentage of TUNEL-positive cells [1]: 3.33% ± 0.31%
Ki67-positive rate [1]: 22.17% ± 5.10%
p-mTOR expression in tumor tissues (p-mTOR): decreased
F (percent oral bioavailability) ([2]; i.g. 10.0 mg/kg versus i.v. 1.00 mg/kg): 8.3%
AUClast ([2]; i.g., 10.0 mg/kg): 620 ± 271 ng·h/mL
Cl F obs (plasma clearance rate) ([2]; i.g., 10.0 mg/kg): 12.8 ± 1.63 mL/min/kg
Cmax ([2]; i.g., 10.0 mg/kg): 216 ± 46 ng/mL
MRTlast (mean residence time) ([2]; i.g., 10.0 mg/kg): 3.12 ± 0.45 h
T1/2 (half-life) ([2]; i.g., 10.0 mg/kg): 4.32 ± 1.98 h
Tmax ([2]; i.g., 10.0 mg/kg): 0.67 ± 0.12 h
Vz_F_obs (volume of distribution) ([2]; i.g., 10.0 mg/kg): 6543 ± 687
AUClast ([2]; i.v., 1.00 mg/kg): 742 ± 254 ng·h/mL
Cl F obs (plasma clearance rate) ([2]; i.v., 1.00 mg/kg): 21.6 ± 3.67 mL/min/kg
Cmax ([2]; i.v., 1.00 mg/kg): 754 ± 275 ng/mL
MRTlast (mean residence time) ([2]; i.v., 1.00 mg/kg): 1.32 ± 0.29 h
T1/2 (half-life) ([2]; i.v., 1.00 mg/kg): 1.24 ± 0.21 h
Tmax ([2]; i.v., 1.00 mg/kg): 0.08 ± 0.00 h
Vz_F_obs (volume of distribution) ([2]; i.v., 1.00 mg/kg): 5421 ± 432
p-Akt expression in tumor tissues (p-Akt): decreased

COc1cc(C=CC(=O)CC(=O)C=Cc2ccc(O)c(CN3CCCC3)c2)ccc1O [DMC-BH, 1-[4-Hydroxy-3-(pyrrolidin-1-ylmethyl)phenyl]-7-(4-hydroxy-3-methoxyphenyl) hepta-1,6-diene-3,5-dione]
tumor growth (BLI) [1]: much greater tumor suppressive effects
percentage of TUNEL-positive cells [1]: 28.68% ± 5.15%
Ki67-positive rate [1]: 6.38% ± 1.38%
p-mTOR expression in tumor tissues (p-mTOR): significantly decreased
AUC(0-t) [2, 3]: 634 ± 127 ng·h/mL
Cmax ([2]; female, Sprague-Dawley, plasma, iv, 1.00 mg/kg, read-out: Cmax): 938 ± 231 ng/mL
MRT last [2, 3]: 1.85 ± 0.21 h
half-life [2, 3]: 2.54 ± 0.23 h
Tmax ([2]; female, Sprague-Dawley, plasma, iv, 1.00 mg/kg, read-out: Tmax): 0.08 h
Vd ([2]; female, Sprague-Dawley, plasma, iv, 1.00 mg/kg, read-out: Vz_F_obs (volume of distribution)): 4.9 ± 0.783 L/kg
bioavailability ([2]; female, Sprague-Dawley, plasma, oral, i.g. 10.0 mg/kg versus i.v. 1.00 mg/kg, read-out: F (percent oral bioavailability)): 57.1%
AUC(0-t) [2, 4]: 3620 ± 623 ng·h/mL
CL/F ([2]; female, Sprague-Dawley, plasma, po, i.g., 10.0 mg/kg, read-out: Cl_F_obs (plasma clearance rate) (converted)): 113 mL/min/kg
Cmax ([2]; female, Sprague-Dawley, plasma, po, i.g., 10.0 mg/kg, read-out: Cmax): 1260 ± 385 ng/mL
MRT last [2, 4]: 4.21 ± 0.16 h
half-life [2, 4]: 7.82 ± 1.54 h
Tmax ([2]; female, Sprague-Dawley, plasma, po, i.g., 10.0 mg/kg, read-out: Tmax): 1.45 ± 0.35 h
Vd/F ([2]; female, Sprague-Dawley, plasma, po, i.g., 10.0 mg/kg, read-out: Vz_F_obs (volume of distribution)): 54.4 ± 19.1 L/kg
Cl F obs (plasma clearance rate) ([2]; i.v., 1.00 mg/kg): 24.6 ± 4.28 mL/min/kg
increased exposure (AUC) when administered orally compared to DMC ([2]; oral): approximately 6 fold
p-Akt expression in tumor tissues (p-Akt): significantly decreased
